Reference: patent US20070014833A1, “Treatment of eye disorders with sirtuin modulators” (priority 2005, published 2007)

Legend:
[1] = test system: retinal ganglion cells (RGCs); assay: Retinal ganglion cell (RGC) counts in EAE mice with acute optic neuritis, intravitreal treatment; details: for RGC loss: EAE eyes with optic neuritis
Procedure: Study outline: The neuroprotective effects of nicotinamide riboside were examined in EAE mice with optic neuritis. […] To induce EAE, mice were immunized several days later with 300 μg PLP emulsified in complete Freund's adjuvant (CFA), and control mice (without EAE) were mock-immunized with phosphate buffered saline (PBS) in CFA. All mice received 200 ng intraperitoneal pertussis toxin (PT) on the day of immunization (day 0) and again on day 2.
Eyes were treated with nicotinamide riboside by intravitreal (ivt) injections with a volume of 0.8 μl/injection of a stock solution of either 0.1 M or 0.4 M nicotinamide riboside in PBS (Groups 2, 4 and 5). […] Treament with nicotinamide riboside, as well as PBS control injections, were given ivt on days 0, 4, 7 and 11. Mice were scored daily for clinical EAE, and were sacrificed on day 14 by overdose with ketamine and xylazine.
Retinas were dissected and whole-mounted for fluorescent microscopy. RGC numbers were quantified by counting FG-labeled cells in 12 standardized fields in each retina. Optic nerves were dissected and processed for histology. Cut sections stained by H & E were evaluated for the presence of inflammatory cells to determine acute optic neuritis. RGCs were compared between PBS-treated and nicotinamide riboside-treated eyes with optic neuritis to determine whether nicotinamide riboside prevents loss of neurons.

optic neuritis / EAE = assay: Incidence of optic neuritis (optic nerve histology, H & E) and clinical EAE score in PLP-immunized mice; format: in vivo, SJL/J mice

With `NC(=O)c1ccc[n+]([C@@H]2O[C@H](CO)[C@@H](O)[C@H]2O)c1` [nicotinamide riboside] the “Preserving RGCs in an acute optic neuritis model (FIG. 19)” value [1] was “effective”, the RGC loss ([1]; 100 mM treatment (Group 4) vs PBS-treated (Group 3)) was “reduced” and the RGC loss ([1]; 400 mM treatment (Group 5) vs PBS-treated (Group 3)) was “completely blocked”. The “Neuroprotection of RGCs during acute optic neuritis in EAE” value ([1]; dose-dependent manner) was “neuroprotective”, the “Toxicity to RGCs” value ([1]; mouse, in vivo) was “not toxic” and the “RGC numbers, non-EAE eyes treated vs control eyes” value ([1]; non-EAE eyes, Group 2 vs Group 1) was “no difference”. The Inflammatory cell infiltration (optic neuritis / EAE; optic nerve) was “does not prevent”, the “Clinical EAE” value (optic neuritis / EAE; treated mice vs controls) was “did not differ” and the “Incidence of optic neuritis” value (optic neuritis / EAE; treated mice vs controls) was “did not differ”.
